45 molecules from patent US20150191469A1, “COMPOUNDS AND METHODS FOR TREATING HIV” (priority 2012, published 2015) can be followed below.

The assay relates to HIV. Kind of assay: MT4 assay: antiviral HIV activity (cell protection, cell titer glo readout at 96 hours). The format is cell-based. Conditions: Human immunodeficiency virus 1, MT4, 96 h, read-out: HIV MT4 Assay IC50. In outline: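 MT-4 cells infected with HIV, with inhibition readout by CellTiter-Glo luminescence at 96 h relative to no-compound control. Cytotoxicity measured in parallel under the same conditions. IC50 from a 10-point, 3-4-fold dilution series spanning >1000-fold, fitted with a four-parameter logistic equation.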

Setting [1] is: MT4 cells, cell titer glo readout at 96 hours, 10 point dose response.

Counter-ions that a name gives are not always drawn. Like-named read-outs stand apart in the source and are kept apart here.

Broadly, the IC50 is the concentration that gives 50% inhibition. As to `Cc1nc2c(cc(C(=O)N3CCN(C(C)c4ccccc4)CC3)n2C)c(-c2cc(F)c3c(c2C)CCCO3)c1[C@H](OC(C)(C)C)C(=O)O` (stereo partly drawn) [Example 196], the IC50 under setting [1] amounted to 12.3 nM.

For the molecule `Cc1nc2c(cc(-c3ccnc(-c4ccc5[nH]ncc5c4C)c3)n2C)c(-c2cc(F)c3c(c2C)CCCO3)c1[C@H](OC(C)(C)C)C(=O)O` (atropisomer, axis not shown) [Example 68], the half-maximal inhibitory concentration (IC50) under setting [1] was 6.4 nM.

For the molecule `Cc1nc2c(cc(CCc3ccc4cnn(C)c4c3)n2C)c(-c2cc(F)c3c(c2C)CCCO3)c1[C@H](OC(C)(C)C)C(=O)O` [Example 286], under setting [1], the IC50 was found to be 15 nM.

For the molecule `Cc1nc2c(cc(-c3ccnc(-c4ccc5nnn(C)c5c4)c3)n2C)c(-c2cc(F)c3c(c2C)CCCO3)c1[C@H](OC(C)(C)C)C(=O)O` (atropisomer, axis not shown) [Example 35], the IC50 under setting [1] worked out at 10.9 nM.

For the molecule `Cc1nc2c(cc(C(=O)N3CCC(c4ccc(C#N)cc4)CC3)n2C)c(-c2cc(F)c3c(c2C)CCCO3)c1[C@H](OC(C)(C)C)C(=O)O` [Example 175], the IC50 under setting [1] is 4.8 nM.

In the case of `Cc1nc2c(cc(C(=O)N(C)Cc3ccccc3)n2C)c(-c2cc(F)c3c(c2C)CCCO3)c1[C@H](OC(C)(C)C)C(=O)O` [Example 192], the IC50 under setting [1] is 16.6 nM.

Turning to `Cc1cc(COc2cc(-c3cc4c(-c5cc(F)c6c(c5C)CCCO6)c([C@H](OC(C)(C)C)C(=O)O)c(C)nc4n3C)ccn2)ccn1` [Example 73], the IC50 under setting [1] was 3.8 nM.

Take `Cc1nc2c(cc(-c3nc(N4CCC(N5CCCC5)CC4)ns3)n2C)c(-c2cc(F)c3c(c2C)CCCO3)c1[C@H](OC(C)(C)C)C(=O)O` [Example 402]: the IC50 under setting [1] stood at 15 nM.

Consider `Cc1nc2c(cc(-c3nc(N4CCN(S(=O)(=O)N5CCCCC5)CC4)ns3)n2C)c(-c2cc(F)c3c(c2C)CCCO3)c1[C@H](OC(C)(C)C)C(=O)O` [Example 394], for which the IC50 under setting [1] was 16.4 nM.

As to `Cc1nc2c(cc(CCc3ccnc4ccccc34)n2C)c(-c2cc(F)c3c(c2C)CCCO3)c1[C@H](OC(C)(C)C)C(=O)O` [Example 284], the IC50 under setting [1] worked out at 15.7 nM.

Turning to `Cc1nc2c(cc(-c3ccnc(OC4CCN(Cc5ccccc5)CC4)c3)n2C)c(-c2cc(F)c3c(c2C)CCCO3)c1[C@H](OC(C)(C)C)C(=O)O` [Example 75], the IC50 under setting [1] is 100 nM.

Consider `Cc1nc2c(cc(C(=O)NCCN3CCCCC3)n2C)c(-c2cc(F)c3c(c2C)CCCO3)c1[C@H](OC(C)(C)C)C(=O)O` [Example 272], for which the half-inhibitory concentration (IC50) under setting [1] amounted to 294 nM.

With `Cc1nc2c(cc(C(=O)N(C)C)n2C)c(-c2cc(F)c3c(c2C)CCCO3)c1[C@H](OC(C)(C)C)C(=O)O` [Example 270], under setting [1], the IC50 is 112 nM.

As to `Cc1nc2c(cc(-c3ccnc(C(=O)Nc4cnn(C)c4)c3)n2C)c(-c2cc(F)c3c(c2C)CCCO3)c1[C@H](OC(C)(C)C)C(=O)O` (atropisomer, axis not shown) [Example 147], the half-maximal inhibitory concentration (IC50) under setting [1] is 45.3 nM.

For `Cc1nc2c(cc(-c3ccnc(N4CCN(C(=O)c5ccccc5)CC4)c3)n2C)c(-c2cc(F)c3c(c2C)CCCO3)c1[C@H](OC(C)(C)C)C(=O)O` (atropisomer, axis not shown) [Example 82], the IC50 under setting [1] amounted to 47.7 nM.

Regarding `Cc1nc2c(cc(-c3ccnc(-c4cnc5c(c4)CCCN5)c3)n2C)c(-c2cc(F)c3c(c2C)CCCO3)c1[C@H](OC(C)(C)C)C(=O)O` (atropisomer, axis not shown) [Example 72], under setting [1], the IC50 came out at 4.6 nM.

With `CCN(C(=O)c1cc2c(-c3cc(F)c4c(c3C)CCCO4)c([C@H](OC(C)(C)C)C(=O)O)c(C)nc2n1C)C1CCCCC1` [Example 261], under setting [1], the IC50 was 46.8 nM.

For the molecule `Cc1nc2c(cc(-c3ccnc(-n4ccnc4C)c3)n2C)c(-c2cc(F)c3c(c2C)CCCO3)c1[C@H](OC(C)(C)C)C(=O)O` (atropisomer, axis not shown) [Example 63], the IC50 under setting [1] is 15.4 nM.

Regarding `Cc1nc2c(cc(-c3cnc(-c4ccc5c(cnn5C)c4)s3)n2C)c(-c2cc(F)c3c(c2C)CCCO3)c1[C@H](OC(C)(C)C)C(=O)O` [Example 143], the IC50 under setting [1] was 12.5 nM.

For the molecule `Cc1nc2c(cc(-c3ccnc(-c4cnc(O)nc4)c3)n2C)c(-c2cc(F)c3c(c2C)CCCO3)c1[C@H](OC(C)(C)C)C(=O)O` (atropisomer, axis not shown) [Example 36], under setting [1], the IC50 amounted to 8410 nM.

For `COCCN(CCOC)C(=O)c1cc2c(-c3cc(F)c4c(c3C)CCCO4)c([C@H](OC(C)(C)C)C(=O)O)c(C)nc2n1C` [Example 269], the IC50 under setting [1] turned out to be 80.5 nM.

With `Cc1nc2c(cc(-c3nc(N4C[C@@H](C)O[C@@H](C)C4)no3)n2C)c(-c2cc(F)c3c(c2C)CCCO3)c1[C@H](OC(C)(C)C)C(=O)O` (atropisomer, axis not shown; (M)) [Example 410, (2S)(M)-2-(tert-butoxy)-2-(-2-(3-((2S,6R)-2,6-dimethylmorpholino)-1,2,4-oxadiazol-5-yl)-4-(8-fluoro-5-methylchroman-6-yl)-1,6-dimethyl-1H-pyrrolo[2,3-b]pyridin-5-yl)acetic acid], under setting [1], the IC50 turned out to be 3.1 nM.

For the molecule `Cc1nc2c(cc(CN3CCC[C@H]3C(=O)Nc3ccc4c(cnn4C)c3)n2C)c(-c2cc(F)c3c(c2C)CCCO3)c1[C@H](OC(C)(C)C)C(=O)O` [Example 292], under setting [1], the IC50 is 41.3 nM.

Consider `Cc1nc2c(cc(-c3nnc(N4CCN5CCOC[C@@H]5C4)o3)n2C)c(-c2cc(F)c3c(c2C)CCCO3)c1[C@H](OC(C)(C)C)C(=O)O` [Example 333], for which the IC50 under setting [1] is 16.5 nM.

`Cc1nc2c(cc(-c3ccnc(N4CCCN(C5COC5)CC4)c3)n2C)c(-c2ccc(Cl)cc2)c1[C@H](OC(C)(C)C)C(=O)O` [Example 431]: the IC50 under setting [1] worked out at 143 nM.

As for `Cc1nc2c(cc(-c3nnc(N4CCN(CCN5CCOCC5)CC4)o3)n2C)c(-c2cc(F)c3c(c2C)CCCO3)c1[C@H](OC(C)(C)C)C(=O)O` [Example 340], under setting [1], the IC50 was found to be 43.2 nM.

Turning to `Cc1nc2c(cc(-c3nc(N4CCN(S(=O)(=O)N5CCOCC5)CC4)ns3)n2C)c(-c2cc(F)c3c(c2C)CCCO3)c1[C@H](OC(C)(C)C)C(=O)O` [Example 392], the IC50 under setting [1] came to 4.9 nM.

In the case of `Cc1nc2c(cc(CNC(=O)c3ccc4c(cnn4C)c3)n2C)c(-c2cc(F)c3c(c2C)CCCO3)c1[C@H](OC(C)(C)C)C(=O)O` (atropisomer, axis not shown; (M)) [Example 412, (2S)(M)-2-(tert-butoxy)-2-(-4-(8-fluoro-5-methylchroman-6-yl)-1,6-dimethyl-2-((1-methyl-1H-indazole-5-carboxamido)methyl)-1H-pyrrolo[2,3-b]pyridin-5-yl)acetic acid], the half-maximal inhibitory concentration (IC50) under setting [1] came to 43.1 nM.

Turning to `Cc1nc2c(cc(-c3nnc(NCCN4CCN(C)CC4)o3)n2C)c(-c2cc(F)c3c(c2C)CCCO3)c1[C@H](OC(C)(C)C)C(=O)O` [Example 341], the half-maximal inhibitory concentration (IC50) under setting [1] came out at 1250 nM.

As to `COC[C@H]1CCCN1c1nnc(-c2cc3c(-c4cc(F)c5c(c4C)CCCO5)c([C@H](OC(C)(C)C)C(=O)O)c(C)nc3n2C)o1` [Example 330], the 50% inhibitory concentration (IC50) under setting [1] worked out at 12.8 nM.

Regarding `Cc1nc2c(cc(-c3nc(N4CCCCC4)ns3)n2C)c(-c2cc(F)c3c(c2C)CCCO3)c1[C@H](OC(C)(C)C)C(=O)O` [Example 368], under setting [1], the IC50 was found to be 39.5 nM.

As to `CC(=O)N1CCN(c2cc(-c3cc4c(-c5cc(F)c6c(c5C)CCCO6)c([C@H](OC(C)(C)C)C(=O)O)c(C)nc4n3C)ccn2)CC1` (atropisomer, axis not shown) [Example 89], under setting [1], the IC50 stood at 25 nM.

For `Cc1nc2c(cc(C(=O)NCCC3CCCCC3)n2C)c(-c2cc(F)c3c(c2C)CCCO3)c1[C@H](OC(C)(C)C)C(=O)O` [Example 259], the IC50 under setting [1] is 1.9 nM.

As to `Cc1nc2c(cc(C(=O)N3CCCN(c4nccs4)CC3)n2C)c(-c2cc(F)c3c(c2C)CCCO3)c1[C@H](OC(C)(C)C)C(=O)O` [Example 206], under setting [1], the concentration for half-maximal inhibition (IC50) turned out to be 126 nM.

Turning to `Cc1nc2c(cc(-c3nsc(N4CCNCC4)n3)n2C)c(-c2cc(F)c3c(c2C)CCCO3)c1[C@H](OC(C)(C)C)C(=O)O` [Example 367], under setting [1], the IC50 stood at 17.5 nM.

Regarding `CNC(=O)c1cc2c(-c3cc(F)c4c(c3C)CCCO4)c([C@H](OC(C)(C)C)C(=O)O)c(C)nc2n1C` [Example 228], under setting [1], the IC50 was 136 nM.

Consider `Cc1nc2c(cc(C(=O)NCC3CCCCC3)n2C)c(-c2cc(F)c3c(c2C)CCCO3)c1[C@H](OC(C)(C)C)C(=O)O` [Example 237], for which, under setting [1], the concentration for half-maximal inhibition (IC50) was 4.3 nM.

Regarding `Cc1nc2c(cc(C(=O)N3CC(c4ccccc4)C3)n2C)c(-c2cc(F)c3c(c2C)CCCO3)c1[C@H](OC(C)(C)C)C(=O)O` [Example 194], the IC50 under setting [1] was 1.5 nM.

Turning to `Cc1nc2c(cc(C(=O)N3Cc4ccccc4C3)n2C)c(-c2cc(F)c3c(c2C)CCCO3)c1[C@H](OC(C)(C)C)C(=O)O` [Example 184], the half-maximal inhibitory concentration (IC50) under setting [1] was found to be 42 nM.

With `Cc1nc2c(cc(C(=O)NCc3ccc(N(C)C)cc3)n2C)c(-c2cc(F)c3c(c2C)CCCO3)c1[C@H](OC(C)(C)C)C(=O)O` [Example 227], under setting [1], the IC50 turned out to be 2.8 nM.

As to `Cc1nc2c(cc(C(=O)NC3CCCCC3)n2C)c(-c2cc(F)c3c(c2C)CCCO3)c1[C@H](OC(C)(C)C)C(=O)O` [Example 249], the IC50 under setting [1] was 12.1 nM.

With `Cc1nc2c(cc(C(=O)NCc3cccnc3)n2C)c(-c2cc(F)c3c(c2C)CCCO3)c1[C@H](OC(C)(C)C)C(=O)O` [Example 266], the concentration for half-maximal inhibition (IC50) under setting [1] is 146 nM.

As for `Cc1nc2c(cc(C(=O)N3CCN(C4CCCC4)CC3)n2C)c(-c2cc(F)c3c(c2C)CCCO3)c1[C@H](OC(C)(C)C)C(=O)O` (atropisomer, axis not shown; (M)) [Example 161, (2S)(M)-2-(tert-butoxy)-2-(2-(4-cyclopentylpiperazine-1-carbonyl)-4-(8-fluoro-5-methylchroman-6-yl)-1,6-dimethyl-1H-pyrrolo[2,3-b]pyridin-5-yl)acetic acid ditrifluoroacetic acid salt], the IC50 is 37.9 nM.

Regarding `Cc1nc2c(cc(-c3nc(N4CCC(N5CCN(C)CC5)CC4)ns3)n2C)c(-c2cc(F)c3c(c2C)CCCO3)c1[C@H](OC(C)(C)C)C(=O)O` [Example 389], under setting [1], the IC50 is 5.6 nM.

As for `Cc1nc2c(cc(-c3nnc(-c4ccc5c(cnn5C)c4)o3)n2C)c(-c2cc(F)c3c(c2C)CCCO3)c1[C@H](OC(C)C)C(=O)O` [Example 442], under setting [1], the IC50 came to 5.1 nM.
